The nature of data set [1]: in vitro. Conditions: dog, MDCK.
Data set [2] is described as follows: in vitro. As to conditions: human, liver microsomes. For orientation: Liver microsomes are a subcellular fraction often used to study metabolism.
A short description of data set [3]: physchem. As to conditions: buffer, pH 7.4.
Data set [4] can be described thus: in vitro. Conditions: human, hepatocytes.

Where only a bound is given, the exact number is not on record here.

As usually defined, the Papp is the rate of passage across a membrane or cell layer, normalised by area and donor concentration. A higher Papp goes with fast passage. For orientation: microsomal CLint means the rate of metabolic loss divided by the concentration. Read a low microsomal CLint as greater metabolic stability. Usually logD stands for the decadic logarithm of the distribution of all forms, ionised or not, between an organic phase and buffer at a given pH. A high value points to higher lipophilicity. Usually hepatocyte CLint stands for the rate of metabolic loss divided by the concentration. Read a high hepatocyte CLint as faster metabolism.

In data set [1], `C[C@]1(O)CCN(c2nc(N3C[C@H](O)[C@@H](O)C3)cc(C(F)(F)F)c2C#N)C1` yielded a Papp of 3.5 ×10⁻⁶ cm/s. Also, in data set [2], the microsomal CLint is less than 13 µL/min/mg. This molecule also had a logD in data set [3] of 2.2.
For `C[C@H]1[C@H](O)CN1c1nc(N2C[C@@H]3[C@@H](CC(=O)O)[C@@H]3C2)cc(C(F)(F)F)c1C#N`, the Papp in data set [1] worked out at 5.6 ×10⁻⁶ cm/s. This molecule also had a microsomal CLint in data set [2] of less than 11 µL/min/mg. In addition, the hepatocyte CLint in data set [4] came out at 26 µL/min/1e6 cells. Besides, the logD in data set [3] stood at 1.
The molecule `C[C@H]1[C@H](O)CN1c1nc(N2C[C@@H]3[C@@H](CO)[C@@H]3C2)cc(C(F)(F)F)c1C#N` had a logD in data set [3] of 3.3.
In data set [1], `C[C@H]1[C@H](O)CN1c1nc(N2C[C@@H]3[C@@H](CC(=O)O)[C@@H]3C2)cc(C(F)(F)F)n1` gave a Papp of 1.4 ×10⁻⁶ cm/s. In addition, the hepatocyte CLint in data set [4] is less than 2 µL/min/1e6 cells. This molecule also had a logD in data set [3] of 0.1.
In data set [3], `C[C@H]1[C@H](O)CN1c1nc(N2C[C@@H]3[C@H](C2)[C@H]3C(=O)O)cc(C(F)(F)F)c1C#N` displayed a logD of 0.6.

Source of the values: ChEMBL document CHEMBL4673244 (J Med Chem, 2020).
